Measured values as given in patent EP0533240A2, “Substituted amine derivatives of piperazinylcamphorsulfonyl oxytocin antagonists” (MERCK & CO. INC., priority 1991, dated 1993).
pIC50: −log10 of the molar value.

molecular target: T1, uterine OT receptors (Rattus norvegicus, UniProt P70536); experiment: [3H]Oxytocin radioligand binding assay, crude uterine membrane preparation; design: species or system rats; conditions: at 100 nM compound; 1 nM [3H]OT, rat uterine membranes
T1 construct: from tissue; host or cells: uterus of DES-treated rats, crude membrane preparation
T1 sequence (P70536 1-388): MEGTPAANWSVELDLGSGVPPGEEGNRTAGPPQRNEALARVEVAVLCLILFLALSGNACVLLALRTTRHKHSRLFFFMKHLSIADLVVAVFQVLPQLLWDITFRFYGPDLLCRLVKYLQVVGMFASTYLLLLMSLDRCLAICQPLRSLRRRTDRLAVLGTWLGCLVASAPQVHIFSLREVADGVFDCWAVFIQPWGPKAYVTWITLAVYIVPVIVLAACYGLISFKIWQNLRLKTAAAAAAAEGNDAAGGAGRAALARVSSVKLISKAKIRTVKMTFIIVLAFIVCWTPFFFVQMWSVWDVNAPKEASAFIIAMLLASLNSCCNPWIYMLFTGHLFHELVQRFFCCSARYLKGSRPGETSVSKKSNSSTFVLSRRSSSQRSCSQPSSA
Protocol: Oxytocin (OT)([tyrosyl, 3,5-[^3H]OT; 30-60 Ci/mmol; New England Nuclear. Boston, MA) to uterine OT receptors was based on an assay*using a crude membrane preparation of uteri taken from diethylstilbestrol dipropionate (DES)-treated (0.3 mg/kg, ip; 18-24) rats. Competetion studies were conducted at equilibrium (60 minutes; 22 °C) using 1 nM[^3H]OT in the following assay buffer: 50 mM Tris-HCI, 5 mM MgCl2, and 0.1% BSA, pH 7.4. Nonspecific binding (10% of the total binding) was determined using 1µM unlabeled OT and the binding reaction was terminated by filtration through glass fiber filters using a cell harvester (model 7019, Skatron, Inc., Sterling, VA).

inhibition at 100 nM [% inhibition at 100 nM]	SMILES	inhibition at 0.1 µM [%]
66	CCOC(=O)CN1CCCC(C(=O)NC(C)CC2(O)CC3CCC2(CS(=O)(=O)N2CCN(c4ccccc4C)CC2)C3(C)C)C1 (stereo not shown) [Example 57]	–
–	C=CC1(O)CC2CCC1(CS(=O)(=O)N1CCN(c3ccccc3C)CC1)C2(C)C (stereo not drawn) [Example 12, 1-((7,7-dimethyl-2-exo-hydroxy-2-endo-ethenyl-bicyclo(2.2.1)heptan-1-yl)methanesulfonyl)-4-(2-methylphenyl)piperazine]	23
–	COC(=O)CCNCC(C)C1(O)CC2CCC1(CS(=O)(=O)N1CCN(c3ccccc3C)CC1)C2(C)C (stereo not shown) [Example 10]	48

same assay, conditions: at 1,000 nM compound; 1 nM [3H]OT, rat uterine membranes

SMILES	inhibition at 1 µM [%]
Cc1ccccc1N1CCN(S(=O)(=O)CC23CCC(CC2N(C)C(=O)OCc2ccccc2)C3(C)C)CC1 (stereo not shown) [Example 40]	35
COC(=O)C1=CC2CCC1(CS(=O)(=O)N1CCN(c3ccccc3C)CC1)C2(C)C (stereo not shown) [Example 20, 1-((7,7-DIMETHYL-2-METHOXYCARBONYL-BICYCLO (2.2.1)HEPT-2-EN-1-YL)METHANESULFONYL)-4-(2-METHYLPHENYL)PIPERAZINE]	72
Cc1ccccc1N1CCN(S(=O)(=O)CC23CCC(CC2O)C3(C)C)C(C)C1 (stereo not shown) [Example 32]	37
Cc1ccccc1N1CCN(S(=O)(=O)CC23CCC(CC24CO4)C3(C)C)CC1 (stereo not shown) [Example 18]	75
Cc1ccccc1N1CCN(S(=O)(=O)CC23CCC(CC2=CCN)C3(C)C)CC1 (stereo not shown) [Example 16, 1-((7,7-dimethyl-2-(2-amino)ethylidine-bicyclo(2.2.1)heptan-1-yl)methanesulfonyl)-4-(2-methylphenyl)-piperazine]	64
Cc1ccccc1N1CCN(S(=O)(=O)CC23CCC(CC2=CCN=[N+]=[N-])C3(C)C)CC1 (stereo not shown) [Example 15, 1-((7,7-dimethyl-2-(2-azido)ethylidine-bicyclo(2.2.1)heptan-1-yl)methanesulfonyl)-4-(2-methylphenyl)-piperazine]	44
Cc1ccccc1N1CCN(S(=O)(=O)CC23CCC(C=C2C(=O)O)C3(C)C)CC1 (stereo not shown) [Example 21, 1-((7,7-DIMETHYL-2-CARBOXY-BICYCLO(2.2.1) HEPT-2-EN-1 -YL)METHANESULFONYL)-4-(2-METHYLPHENYL)PIPERAZINE]	38
Cc1ccccc1N1CCN(S(=O)(=O)CC23CCC(CC2NC(=O)OCc2ccccc2)C3(C)C)CC1 (stereo not shown) [Example 39]	54

The remaining lines, values ahead:

inhibition at 1 µM [%]	SMILES
31	Cc1ccccc1N1CCN(S(=O)(=O)CC23CCC(CC2(O)CNCC(C)C)C3(C)C)CC1 (stereo not drawn) [Example 19, 1-((7,7-DIMETHYL-2-EXO-HYDROXY-2-ENDO-ISOBUTYLAMINOMETHYL-BICYCLO(2.2.1 )HEPTAN-1-YL)-METHANESULFONYL)-4-(2-METHYLPHENYL)PIPERAZINE]
78	Cc1ccccc1N1CCN(S(=O)(=O)CC23CCC(C=C2C(=O)NCCc2c[nH]cn2)C3(C)C)CC1 (stereo not shown) [Example 22, 1-((7,7-DIMETHYL-2-(4-IMIDAZOLYL)ETHYLAMINOCARBONYL-BICYCLO(2.2.1 )HEPT-2-EN-1-YL)-METHANESULFONYL)-4-(2-METHYLPHENYL)PIPERAZINE]

same assay, conditions: at 10,000 nM compound; 1 nM [3H]OT, rat uterine membranes

inhibition at 10 µM [%]	SMILES
5	Cc1ccccc1N1CCN(S(=O)(=O)CC23CCC(CC2=O)C3(C)C)C(C)C1=O (stereo not shown) [Example 31]

same assay, conditions: competition with 1 nM [3H]OT, 60 minutes, 22 °C, membranes of uteri from DES-treated rats

SMILES	pIC50
Cc1ccccc1N1CCN(S(=O)(=O)CC23CCC(CC2(O)C(C)CNC(=O)C2CN4CCC2CC4)C3(C)C)CC1 (stereo not shown) [Example 8]	7.74
Cc1ccccc1N1CCN(S(=O)(=O)CC23CCC(CC2=O)C3(C)C)CC1 (stereo not shown) [Example 1, 1-((7,7-DIMETHYL-2-OXO-BICYCLO(2.2.1)HEPTAN-1-YL) METHANESULFONYL)-4-(2-METHYLPHENYL)-PIPERAZINE]	6.00
Cc1ccccc1N1CCN(S(=O)(=O)CC23CCC(CC2=CCNCC(C)C)C3(C)C)CC1 (stereo not shown) [Example 14, 1-((7,7-dimethyl-2-(2-isobutylamino)ethylidine-bicyclo (2.2.1)heptan-1-yl)methanesulfonyl)-4-(2-methylphenyl) piperazine]	5.96
COC(=O)CCN(CCC(=O)OC)CC(C)C1(O)CC2CCC1(CS(=O)(=O)N1CCN(c3ccccc3C)CC1)C2(C)C (stereo not drawn) [Example 11, 1-((7,7-dimethyl-2-exo-hydroxy-2-endo-2-(1-bis-(2-methoxycarbonylethyl)amino)propylbicyclo(2.2.1)heptan-1-yl)methanesulfonyl)-4-(2-methylphenyl)piperazine]	7.27
CCOC(=O)CCCN1CCCC1C(=O)NCC(C)C1(O)CC2CCC1(CS(=O)(=O)N1CCN(c3ccccc3C)CC1)C2(C)C [Example 5, 1-((7,7-DIMETHYL-2-EXO-HYDROXY-2-ENDO-2-(1-(L-N-(ETHOXYCARBONYLPROPYL)PROLYL)AMINO)-PROPYL-BICYCLO-(2.2.1)HEPTAN-1-YL)METHANESULFONYL)-4-(2-METHYLPHENYL) PIPERAZINE]	7.00
Cc1ccccc1N1CCN(S(=O)(=O)CC23CCC(CC2NC(=O)C(C)c2c[nH]cn2)C3(C)C)CC1 (stereo not drawn) [Example 44, 1-((7,7-DIMETHYL-2-ENDO-(2-(4-IMIDAZOLYL)PROPANOYL)AMINO-BICYCLO(2.2.1 )HEPTAN-1-YL)-METHANESULFONYL)-4-(2-METHYLPHENYL)-3-PIPERAZINE]	6.74

Next, values leading:

pIC50	SMILES
6.96	Cc1ccccc1N1CCN(S(=O)(=O)CC23CCC(CC2NC(=O)Cc2c[nH]cn2)C3(C)C)CC1 (stereo not shown) [Example 43]
7.55	Cc1ccccc1N1CCN(S(=O)(=O)CC23CCC(CC2(O)C(C)CNC(=O)C2CCCN2CC(=O)O)C3(C)C)CC1 (stereo not shown) [Example 53]
7.52	COC(=O)CCN1CCC(C(=O)NCC(C)C2(O)CC3CCC2(CS(=O)(=O)N2CCN(c4ccccc4C)CC2)C3(C)C)CC1 (stereo not shown) [Example 55]
7.70	Cc1ccccc1N1CCN(S(=O)(=O)CC23CCC(CC2(O)C(C)CNC(=O)C2CCCN2CCC(=O)O)C3(C)C)CC1 (stereo not shown) [Example 46]
7.60	Cc1ccccc1N1CCN(S(=O)(=O)CC23CCC(CC2(O)C(C)CNC(=O)C2CCCN(CCC(=O)O)C2)C3(C)C)CC1 (stereo not drawn) [Example 49, 1-((7,7-DIMETHYL-2-EXO-HYDROXY-2-ENDO-2-(1-(3-(1-CARBOXYETHYL)PIPERIDINYLCARBONYL)-AMINO)PROPYL-BICYCLO-(2.2.1)HEPTAN-1-YL)METHANESULFONYL)-4-(2-METHYLPHENYL) PIPERAZINE]
7.25	Cc1ccccc1N1CCN(S(=O)(=O)CC23CCC(CC2(O)C(C)CNC(=O)C2CCN(CC(=O)O)CC2)C3(C)C)CC1 (stereo not drawn) [Example 58, 1-((7,7-DIMETHYL-2-EXO-HYDROXY-2-ENDO-2-(1-(4-(1-CARBOXYMETHYL)PIPERIDINYLCARBONYL)-AMINO)PROPYL-BICYCLO (2.2.1)HEPTAN-1-YL)METHANESULFONYL)-4-(2-METHYLPHENYL) PIPERAZINE]
7.27	Cc1ccccc1N1CCN(S(=O)(=O)CC23CCC(CC2(O)C(C)CNC(=O)C2CCN(CCC(=O)O)CC2)C3(C)C)CC1 (stereo not drawn) [Example 56, 1-((7,7-DIMETHYL-2-EXO-HYDROXY-2-ENDO-2-(1-(4-(1-CARBOXYETHYL)PIPERIDINYLCARBONYL)-AMINO)PROPYL-BICYCLO-(2.2.1)HEPTAN-1-YL)METHANESULFONYL)-4-(2-METHYLPHENYL) PIPERAZINE]
7.82	Cc1ccccc1N1CCN(S(=O)(=O)CC23CCC(CC2(O)C(C)CNC(=O)C2CCCNC2)C3(C)C)CC1 (stereo not drawn) [Example 47, 1-((7,7-DIMETHYL-2-EXO-HYDROXY-2-ENDO-2-(1-(3-PIPERIDINYLCARBONYL)AMINO)PROPYL-BICYCLO-(2.2.1)HEPTAN-1-YL) METHANESULFONYL)-4-(2-METHYLPHENYL)PIPERAZINE]
6.74	Cc1ccccc1N1CCN(S(=O)(=O)CC23CCC(CC2(O)C(C)CN)C3(C)C)CC1 (single isomer, unassigned) [Example 3, 1-((7,7-DIMETHYL-2-EXO-HYDROXY-2-ENDO-2-(1-AMINO)PROPYL-BICYCLO(2.2.1 )HEPTAN-1-YL)-METHANESULFONYL)-4-(2-METHYLPHENYL)PIPERAZINE]
6.82	Cc1ccccc1N1CCN(S(=O)(=O)CC23CCC(CC2(O)C(C)C#N)C3(C)C)CC1 (single isomer, unassigned) [Example 2, 1-((7,7-DIMETHYL-2-EXO-HYDROXY-2-ENDO-(1-CYANO)ETHYL-BICYCLO(2.2.1)HEPTAN-1-YL)-METHANESULFONYL)-4-(2-METHYL PHENYL)PIPERAZINE]
7.42	Cc1ccccc1N1CCN(S(=O)(=O)CC23CCC(CC2(O)C(C)CNC(=O)C2CCCN(CC(=O)O)C2)C3(C)C)CC1 (stereo not shown) [Example 51]
8.00	Cc1ccccc1N1CCN(S(=O)(=O)CC23CCC(CC2(O)C(C)CNC(=O)C2CCCN2CCCC(=O)O)C3(C)C)CC1 [Example 6, 1-((7,7-DIMETHYL-2-EXO-HYDROXY-2-ENDO-2-(1-(L-N-(3-CARBOXYPROPYL)PROLYL)AMINO)PROPYL-BICYCLO(2.2.1) HEPTAN-1 -YL)METHANESULFONYL)-4-(2-METHYLPHENYL) PIPERAZINE]
7.85	Cc1ccccc1N1CCN(S(=O)(=O)CC23CCC(CC2(O)C(C)CNC(=O)C2CCNCC2)C3(C)C)CC1 (stereo not shown) [Example 54]
7.46	COC(=O)C1CC(=O)N(CC(C)C2(O)CC3CCC2(CS(=O)(=O)N2CCN(c4ccccc4C)CC2)C3(C)C)C1 (stereo not shown) [Example 26]
7.52	COC(=O)CCN1CCCC(C(=O)NCC(C)C2(O)CC3CCC2(CS(=O)(=O)N2CCN(c4ccccc4C)CC2)C3(C)C)C1 (stereo not shown) [Example 48]
7.47	Cc1ccccc1N1CCN(S(=O)(=O)CC23CCC(CC2(O)C(C)CNC(=O)C2CCCN2)C3(C)C)CC1 (stereo not shown) [Example 4]
8.10	Cc1ccccc1N1CCN(S(=O)(=O)CC23CCC(CC2(O)C(C)CNC(=O)Cc2c[nH]cn2)C3(C)C)CC1 (stereo not shown) [Example 7]
